The results in this text go back to patent publication US20170290820A1, “METHODS AND COMPOSITIONS FOR TREATING BETA-THALASSEMIA AND SICKLE CELL DISEASE” (Academia Sinica, priority 2013, published 2017).

The test system of series [1] is primary human erythroid cells. The experiment in a line: AlamarBlue cell viability / proliferation assay. Particulars: for IC50: 3 days. (Resazurin is reduced to fluorescent resorufin, in cell work by metabolically active cells.)
A further series deals with γ globin gene. The series can be described thus: γ globin gene induction by relative quantitative RT-PCR. It is filed as cell-based, human. As to conditions: for γ globin induction (IC50): Table 3, γ globin mRNA induction fold at the compound's IC50, 3 days; for EC (μM) induction of HU IC50 (2.3 fold): concentration inducing γ globin gene expression 2.3-fold, primary human erythroid cells. Here is the method:
After 3 days of drug-treatment, the total RNA was extracted by RNA Spin mini kit (Ge-Healthcare) and reverse-transcription was performed by using superscript II (Invitrogen) followed the manufactors instruction. Quantitative PCR was performed on LightCycler with using STBR green master mix followed the manufactors instruction (Roche). The absolute quantitative RT-PCR was calculated by the standard curve with supplying a known copy number of plasmids. The relative quantitative RT-PCR was normalized to the expression levels of the β-actin and compared to the mock control.
To search for new agents, which are capable of inducing the expression of γ globin, a series of naphthalimide derivatives with various substituent(s) on the naphthalene ring and the heterocyclic N-atom (A1-A14, B1-B4, C1-C5, D1, and E1-E3, FIG. 2) were synthesized. These derivatives were subjected to evaluating the γ globin induction abilities in differentiated peripheral blood mononuclear cells (PBMCs). The PBMCs isolated from the peripheral blood of donors were expanded and differentiated for a total of 14 days in a two-phase liquid culture. The resulted primary erythoid cells were then treated with different dosages of naphthalimide derivatives individually for another 3 days. The expression levels of the endogenous γ globin gene were estimated by relative quantitative RT-PCR and the proliferation rates of these cells were examined by AlamarBlue cell viability assay. […]; 2-4.5-folds induction of the γ globin gene expression in the compounds-treated cells (FIG. 3).

Series [2] in a line: solubility in DMSO and H2O. The series is classed as physicochemical. Particulars: for water-solubility (in words): comparison.
[3] abbreviates: Table 1a, concentration reducing proliferation rate of primary human erythroid cells by 50%.
Setting [4] is: Table 3, primary human erythroid cells, proliferation reduced by 50%.
Where [5] appears, read: water, H2O, read-out: solubility H2O.

Each structure is given as a SMILES string. Converted amounts (≈) assume the structure as drawn. Where a name gives a salt, the structure may show the parent alone. Read-outs that look alike come from different tables or passages of the source.

What is called melting point is the temperature of the solid-liquid transition. `CN(C)CCN1C(=O)c2cccc3c(Cl)ccc(c23)C1=O` (as salt: hydrochloride) [Compound B4, N-(2-dimethylamino-ethyl)-4-chloro-1,8-naphthalimide hydrochloride]: the melting point is more than 280 °C.
Same read-out and setting: the value for `CN(C)CCCN1C(=O)c2cccc3c(N)ccc(c23)C1=O` (as salt: hydrochloride) [Compound E3, N-(3-dimethylamino-propyl)-4-amino-1,8-naphthalimide hydrochloride] was more than 280 °C; that for `CN(C)CCN1C(=O)c2cccc3cccc(c23)C1O` (stereo not shown) [BO-2476, 2-(2-(Dimethylamino)ethyl)-3-hydroxy-2,3-dihydro-1H-benzo[de]isoquinolin-1-one] was 129 to 130 °C.
Turning to `CN(C)CCN1Cc2cccc3cccc(c23)C1=O` [BO-2477, 2-(2-(Dimethylamino)ethyl)-2,3-dihydro-1H-benzo[de]isoquinolin-1-one], the melting point lay within 253 to 254 °C. Moreover, the “cytotoxicity IC50 against primary erythroid cells” value in series [1] (FIG. 8, Example 2) is “relatively lower cytotoxicity”. Moreover, the “γ globin-inducing activity, rank among compounds tested” value with γ globin gene (FIG. 8) is “highest γ globin-inducing activity”.
As for `CC(=O)Nc1ccc2c3c(cccc13)C(=O)N(CCN(C)C)C2=O` [BO-2559, N-(2-(2-(Dimethylamino)ethyl)-1,3-dioxo-2,3-dihydro-1H-benzo[de]isoquinolin-6-yl)acetamide], the melting point is 278 to 279 °C.
On the same count and under the same terms, the value for `CN(C)CCN1Cc2cccc3c(N)ccc(c23)C1` [BO-2560, 2-(2-(Dimethylamino)ethyl)-2,3-dihydro-1H-benzo[de]isoquinolin-6-amine] was 253 to 254 °C.
Regarding `CN(C)CCN1Cc2cccc3c(N(C)C)ccc(c23)C1` [BO-2563, 2-(2-(Dimethylamino)ethyl)-N,N-dimethyl-2,3-dihydro-1H-benzo[de]isoquinolin-6-amine], the melting point fell in the range of 251 to 252 °C.
On the same count and under the same terms, the value for `CCNc1ccc2c3c(cccc13)C(=O)N(CCN(C)C)C2=O` [BO-2564, 2-(2-(Dimethylamino)ethyl)-6-(ethylamino)-1H-benzo[de]isoquinoline-1,3(2H)-dione] was 253 to 254 °C; that for `CCNc1ccc2c3c(cccc13)CN(CCN(C)C)C2` [BO-2565, 2-(2-(dimethylamino)ethyl)-N-ethyl-2,3-dihydro-1H-benzo[de]isoquinolin-6-amine] was 239 to 240 °C.
The term IC50 denotes the midpoint of a concentration-inhibition curve. Lower therefore signals greater potency. Usually solubility stands for how much of the substance goes into solution per volume. In turn, `O=C1c2cccc3cccc(c23)C(=O)N1c1ccccc1` [Compound A1, N-Phenyl-1,8-naphthalimide] gave a melting point of 218 to 220 °C. The compound also showed an IC50 in series [1] (setting [3]) of more than 100 µM. In addition, in series [2] (DMSO, organic solvent or mixture, read-out: solubility DMSO), the solubility worked out at 10 mM (≈ 2730 µg/mL).
Compound `O=C1c2cccc3c([N+](=O)[O-])ccc(c23)C(=O)N1c1ccccc1` [Compound A2, N-Phenyl-4-nitro-1,8-naphthalimide] yielded a melting point of more than 280 °C. This compound also had an IC50 in series [1] (setting [3]) of 0.3 µM. Further, the “γ globin induction (IC50)” value in the series with γ globin gene was found to be 1.1 fold.
Regarding `O=C1c2cccc3c([N+](=O)[O-])ccc(c23)C(=O)N1c1ccc(Cl)c(Cl)c1` [Compound A3, N-(3,4-Dichloro-phenyl)-4-nitro-1,8-naphthalimide], the melting point was more than 280 °C. This compound also registered an IC50 in series [1] (setting [3]) of 5.2 µM.
In turn, `COc1cccc(N2C(=O)c3cccc4c([N+](=O)[O-])ccc(c34)C2=O)c1` [Compound A4, N-(3-Methoxy-phenyl)-4-nitro-1,8-naphthalimide] returned a melting point of more than 280 °C. Moreover, the concentration for half-maximal inhibition (IC50) in series [1] (setting [3]) came out at 21 µM.
On the same counts, the results for `O=C(O)CCCc1ccc(N2C(=O)c3cccc4c([N+](=O)[O-])ccc(c34)C2=O)cc1` [Compound A5, N-(4-Butyric acid-phenyl)-4-nitro-1,8-naphthalimide] are 254.5 to 256 °C and 6.7 µM.
On to `O=C1c2cccc3c(Cl)ccc(c23)C(=O)N1c1ccccc1` [Compound A6, N-Phenyl-4-chloro-1,8-naphthalimide], for which the melting point lay in the range of 263 to 265.5 °C. For the same compound, the half-inhibitory concentration (IC50) in series [1] (setting [3]) was more than 100 µM.
The corresponding values for `COc1cccc(N2C(=O)c3cccc4c(Cl)ccc(c34)C2=O)c1` [Compound A7, N-(3-Methoxy-phenyl)-4-chloro-1,8-naphthalimide] are more than 280 °C and more than 100 µM.
For the compound `O=C1c2cccc3c(Cl)ccc(c23)C(=O)N1c1cccc(C(F)(F)F)c1` [Compound A8, N-(3-Trifluoromethyl-phenyl)-4-chloro-1,8-naphthalimide], the melting point lay in the range of 278 to 279 °C. This compound also displayed an IC50 in series [1] (setting [3]) of more than 100 µM.
On to `O=C1c2cccc3c(Cl)ccc(c23)C(=O)N1c1cccc(Br)c1` [Compound A9, N-(3-Bromo-phenyl)-4-chloro-1,8-naphthalimide], for which the melting point is more than 280 °C. The IC50 in series [1] (setting [3]) was more than 100 µM.
`O=C1c2cccc3c(Cl)ccc(c23)C(=O)N1c1cccc(Cl)c1` [Compound A10, N-(3-Chloro-phenyl)-4-chloro-1,8-naphthalimide] showed a melting point of 273 to 275 °C. Further, the IC50 in series [1] (setting [3]) is more than 100 µM.
Compound `O=C1c2cccc3c(Cl)ccc(c23)C(=O)N1c1ccc(F)c(Br)c1` [Compound A11, N-(3-Bromo-4-fluoro-phenyl)-4-chloro-1,8-naphthalimide] displayed a melting point of more than 280 °C. Moreover, the IC50 in series [1] (setting [3]) is more than 100 µM.
For the compound `O=C1c2cccc3c(Cl)ccc(c23)C(=O)N1c1ccc(F)cc1` [Compound A12, N-(4-Fluoro-phenyl)-4-chloro-1,8-naphthalimide], the melting point fell in the range of 274 to 276 °C. The compound also returned a 50% inhibitory concentration (IC50) in series [1] (setting [3]) of more than 100 µM.
`O=C1c2cccc3c(Cl)ccc(c23)C(=O)N1c1ccc(Br)cc1` [Compound A13, N-(4-Bromo-phenyl)-4-chloro-1,8-naphthalimide] came in with a melting point of more than 280 °C. This compound gave an IC50 in series [1] (setting [3]) of more than 100 µM.
The corresponding values for `O=C1c2cccc3c(Cl)ccc(c23)C(=O)N1c1ccc(Cl)c(Cl)c1` [Compound A14, N-(3,4-Dichloro-phenyl)-4-chloro-1,8-naphthalimide] are more than 280 °C and more than 100 µM.
Turning to `CN(C)CCN1C(=O)c2cccc3cccc(c23)C1=O` [Compound B1, N-(2-Dimethylamino-ethyl)-1,8-naphthalimide hydrochloride], it took 10.7 µM to reach half-maximal inhibition in series [1] (setting [3]) (IC50). The same compound came in with an IC50 in series [1] (setting [4]) of 10.7 µM. In the series with γ globin gene, the “γ globin induction (IC50)” value was 4.1 fold and the “EC (μM) induction of HU IC50 (2.3 fold)” value was 4.7 µM. Also, the “water-solubility (in words)” value in series [2] is “greatly improved water-solubility”. In addition, in series [2] (setting [5]), the solubility is more than 100 mM.
Compound `CN(C)CCN1C(=O)c2cccc3c([N+](=O)[O-])ccc(c23)C1=O` [Compound B2, N-(2-Dimethylamino-ethyl)-4-nitro-1,8-naphthalimide] showed a melting point of 131 to 133 °C. In series [1] (setting [3]), this compound displayed an IC50 of 2.6 µM.
In series [1] (setting [3]), `CN(C)CCCN1C(=O)c2cccc3c([N+](=O)[O-])ccc(c23)C1=O` [Compound B3, N-(3-Dimethylamino-propyl)-4-nitro-1,8-naphthalimide] yielded an IC50 of 2.3 µM.
Consider `CN(C)CCN1C(=O)c2cccc3c(Cl)ccc(c23)C1=O` [Compound B4, N-(2-dimethylamino-ethyl)-4-chloro-1,8-naphthalimide hydrochloride], for which the IC50 in series [1] (setting [3]) and in series [1] (setting [4]) was 5 µM each time. Further, in the series with γ globin gene, the “γ globin induction (IC50)” value was 3.3 fold. Also, the “EC (μM) induction of HU IC50 (2.3 fold)” value in the series with γ globin gene came out at 2.2 µM. The “water-solubility (in words)” value in series [2] was “greatly improved water-solubility”. Besides, the solubility in series [2] (setting [5]) is more than 100 mM.
The compound `CCN1C(=O)c2cccc3cccc(c23)C1=O` [Compound C1, N-Ethyl-1,8-naphthalimide] returned an IC50 in series [1] (setting [3]) of more than 100 µM.
In turn, `CN1C(=O)c2cccc3c([N+](=O)[O-])ccc(c23)C1=O` [Compound C2, N-Methyl-4-nitro-1,8-naphthalimide] displayed a melting point of 209 to 212.5 °C. In series [1] (setting [3]), this compound returned an IC50 of more than 100 µM.
The corresponding values for `CCN1C(=O)c2cccc3c([N+](=O)[O-])ccc(c23)C1=O` [Compound C3, N-Ethyl-4-nitro-1,8-naphthalimide] are 191 to 192.5 °C and more than 100 µM.
`CN1C(=O)c2cccc3c(Cl)ccc(c23)C1=O` [Compound C4, N-Methyl-4-chloro-1,8-naphthalimide] had an IC50 in series [1] (setting [3]) of more than 100 µM.
`CCN1C(=O)c2cccc3c(Cl)ccc(c23)C1=O` [Compound C5, N-Ethyl-4-chloro-1,8-naphthalimide] gave a melting point of 167 to 170 °C. The IC50 in series [1] (setting [3]) is more than 100 µM.
Turning to `CCOC(=O)CCCN1C(=O)c2cccc3c([N+](=O)[O-])ccc(c23)C1=O` [Compound D1, N-(Butyric acid ethyl ester)-4-nitro-1,8-naphthalimide], the melting point lay in the range of 115 to 116 °C. The compound further displayed an IC50 in series [1] (setting [3]) of 6.3 µM.
For `C[S+]([O-])c1ccc(-c2nc(-c3ccncc3)c(-c3ccc(F)cc3)[nH]2)cc1` (stereo not shown) [SB203580, reference compound], in the series with γ globin gene (data not shown), the “effect of pre-treatment on γ globin elevation triggered by S51021 and SS-2394” value was “efficiently abolished”.
